Patent publication US12514833B2, “Combination of ibuprofen and tramadol for relieving pain” (FARMALÍDER, S.A., priority 2019, dated 2026)
Counter-ions that a name gives are not always drawn.

Columns and labels:
Assay type in all cases: in vivo, human
[1] = tested on: patients with visceral moderate to intense pain after non-oncologic abdominal hysterectomy; assay: Example 3: phase III trial, oral ibuprofen arginate/tramadol HCl (400/37.5), pain after hysterectomy (VAS, rescue medication, adverse effects); conditions: tramadol HCl 50 mg; for Total rescued patients (number) / Total rescued patients (%): 8 doses every 6 hours, 48 hours; for Total rescued patients (number): N = 91/94/98, ibuprofen arginate 400 mg; for Total rescued patients (%) / Rescued patients at 24 h (%) / Rescued patients at 24 h (number) / Average time until rescue: ibuprofen arginate 400 mg; for Rescued patients at 24 h (%) / Rescued patients at 24 h (number): first 24 h of the study
Protocol: (§1) A phase III, multicentre, randomized, double-blind, placebo-controlled, study was performed to assess the compared efficacy and safety of the combination of ibuprofen arginate/tramadol HCl (400 mg ibuprofen/37.5 mg tramadol HCl) administered by the oral route, compared to oral tramadol (50 mg), oral ibuprofen arginate (400 mg ibuprofen) and placebo for treating adult patients (aged 18 or more) suffering from visceral moderate to intense pain after non-oncologic abdominal hysterectomy.
(§2) Pain intensity was assessed using the Visual Analogue Scale (VAS).
The patients selected for the study were adults suffering from moderate to severe pain (VAS 0-100≥40 mm) after total or partial abdominal hysterectomy for benign, non-oncologic disease, which required hospitalization during at least 48 hours.
The patients were divided in four groups, receiving the following medication: • Group 1: ibuprofen arginate/tramadol HCl 400 mg/37.5 mg (91 patients) • Group 2: ibuprofen arginate 400 mg (94 patients) • Group 3: tramadol HCl 50 mg (98 patients) • Group 4: placebo (93 patients)
(§3) The amount of ibuprofen arginate (400 mg) is expressed as the amount of ibuprofen in acidic form.
The combination of ibuprofen arginate/tramadol HCl administered to the patients of Group 1 was in the form of granulate for oral administration (as described in Example 4 below). Each dosage comprised 340 mg of L-arginine.
Patients of Group 2 received the commercial medicine Espidifen® 400 mg, each dose comprising 400 mg of ibuprofen, as 770 mg of ibuprofen arginate.
Patients of Group 3 received the commercial medicine Adolonta® 100 mg/ml oral solution, and a dose of 50 mg of tramadol HCl was administered.
After the surgery, the pain intensity of each patient was evaluated according to the VAS test until reaching the value ≥40 mm. At that moment, each patient was recruited and assigned to one of the four groups in a randomized way and the corresponding medication was administered. A new VAS test was performed after the administration of the first dose of the medication, which was taken as the basal value. Subsequently, 7 more doses of the assigned medication were administered, with an interval of 6 hours between doses, so a total of 8 doses were administered to each patient.
After the administration of the first dosage of each medication, the evolution of the patients was followed until 48 hours after the first dosage, by assessing the change in pain intensity.
After 30 minutes from the first dosage, patients were allowed to request a rescue medication, if needed. Rescue medication was 1 g paracetamol given by the oral route. If a second rescue medication was necessary, a capsule of 575 mg metamizole was administered.
Pain intensity was assessed for each patient at the following time points: 0 (basal), 1, 2, 4, 6, 8, 10, 12, 18, 24, 30, 36, 42 and 48 hours after the administration of the first dosage of the medication. For each of the four groups, the average VAS value was calculated at each time point.

[2] = tested on: patients with moderate to intense somatic pain after dental surgery; assay: Example 2: phase III trial, oral ibuprofen arginate/tramadol (400/37.5), pain after dental surgery (VAS, rescue medication, safety); conditions: 4 doses every 6 hours, 24 hours follow-up, tramadol HCl 50 mg; for Number of rescued patients: N = 95/97/98, ibuprofen arginate 400 mg; for % of rescued patients: ibuprofen arginate 400 mg
Protocol: as §1, with “placebo-controlled” for “placebo-controlled,”, “from” for “from visceral”, “intense somatic” for “intense”, “dental surgery.” for “non-oncologic abdominal hysterectomy.”
as §2
The patients selected for the study were adults suffering from moderate to severe pain (VAS 0-100≥45 mm) after surgical extraction of at least two third molars, if only two third molars were extracted, they should be ipsilateral and at least one of them impacted, involving bone removal.
The patients were divided in four groups, receiving the following medication: • Group 1: ibuprofen arginate/tramadol HCl 400 mg/37.5 mg (95 patients) • Group 2: ibuprofen arginate 400 mg (97 patients) • Group 3: tramadol HCl 50 mg (98 patients) • Group 4: placebo (93 patients)
as §3
The combination of ibuprofen arginate/tramadol HCl administered to the patients of Group 1 was in the form of a granulate for oral administration (as described in Example 4). Each dosage comprised 340 mg of L-arginine.
The ibuprofen arginate 400 mg administered to the patients of Group 2 corresponded to the commercial medicine Espidifen® 400 mg, each dose comprising 400 mg of ibuprofen, given as 770 mg of ibuprofen arginate.
The 50 mg dose of tramadol HCl 50 mg of Group 3 was administered using the commercial medicine Adolonta® 100 mg/ml oral solution.
After the dental surgery, the pain intensity of each patient was evaluated according to the VAS test until reaching the value ≥45 mm. At that moment, the patient was assigned to one of the four groups in a randomized way and the corresponding medication was administered. A new VAS test was performed after the administration of the first dose of the medication, which was taken as the basal value. 4 doses of each medication were administered, with an interval of 6 hours between doses.
After the administration of each medication, the evolution of patients was followed until 24 hours after the first dosage, by assessing the change in pain intensity.
Patients were allowed to ask for rescue medication during that period, starting 30 minutes after the administration of the first dosage. […]
Pain intensity was assessed for each patient at the following time points: 0 (basal), 1, 2, 3, 4, 5, 6, 8, 12 and 24 hours after the administration of the medication. For each of the four groups, the average VAS value was calculated.

[3] = tested on: patients with moderate to intense pain after dental surgery; assay: Example 1: phase III pilot trial, intravenous ibuprofen arginate combined with tramadol, pain after dental surgery (VAS, rescue medication, adverse effects); conditions: for VAS (average value): single iv infusion
Protocol: A phase III, multicentre, randomized, double-blind, placebo-controlled, pilot study was performed to assess the compared efficacy and safety of intravenous ibuprofen arginate (400 mg) combined with two different doses of tramadol hydrochloride (37.5 and 75 mg) and of intravenous tramadol 100 mg in patients suffering from moderate to intense pain after dental surgery.
as §2
The patients were divided in four groups, receiving the following medication: • Group 1: ibuprofen arginate/tramadol HCl 400 mg/37.5 mg (16 patients) • Group 2: ibuprofen arginate/tramadol HCl 400 mg/75 mg (18 patients) • Group 3: tramadol HCl 100 mg (18 patients) • Group 4: placebo (saline solution) (17 patients)
The amount of ibuprofen arginate (400 mg) is expressed as the amount of ibuprofen in acidic form. The amount of L-arginine in each composition in groups 1 and 2 was 356 mg, which corresponds to a molar ratio ibuprofen:arginine 1:1.054.
The compositions of groups 1 to 3 were aqueous solutions of the drugs prepared with water for injection. Other excipients included in the compositions were sodium chloride, used as tonicity agent, to reach an osmolality of 310-360 mOsm/Kg, and hydrochloric acid and sodium hydroxide to adjust the pH of the solution to a value in the range 6.8-7.8. The volume of the composition in all groups was 100 ml, which was infused intravenously during 30 minutes, in a single administration. The preparation of the composition used for Group 1 is analogous as disclosed in Example 5. The preparation of the composition used for Group 2 was equivalent, but using 75 mg of tramadol HCl instead of 37.5 mg.
Thus, after the dental surgery, the pain intensity of each patient was evaluated according to the VAS test until reaching the value ≥55 mm. At that moment, the patient was assigned to one of the four groups in a randomized way and the corresponding medication was administered not later than 15 minutes after randomization and not later than 25 minutes after VAS test. A new VAS test was performed at the beginning of the infusion, which was taken as the basal value.
After the administration of each medication, the evolution of patients was followed during 4 hours, by assessing the change in pain intensity.
Patients were allowed to ask for rescue medication during that period, starting 30 minutes after the administration of each treatment. Rescue medication was 1 g paracetamol given by the oral route. If a second rescue medication was necessary, a capsule of 575 mg metamizole was administered. If rescue medication was administered before 4 hours after the administration of the study medication, the patient left the study (but remained still included for assessing safety parameters and was under monitoring for further 4 hours).
Pain intensity was assessed for each patient at the following time points: 0 (basal), 15, 30, 45, 60, 75, 90, 105, 120, 150, 180, 210, and 240 minutes after the administration of the medication. For each of the four groups, the average VAS value was calculated.

## CC(C)Cc1ccc(C(C)C(=O)O)cc1 (racemic) [ibuprofen arginate, (RS)-2-(4-(2-methylpropyl)phenyl)propanoic acid]
[1]
  Total rescued patients (number): 23
  Total rescued patients (%): 24.5%
  Rescued patients at 24 h (%): 22.3%
  Rescued patients at 24 h (number): 21
  Average time until rescue: 8.43 h
[2]
  Number of rescued patients: 6
  % of rescued patients: 6.2%

## COc1cccc([C@]2(O)CCCC[C@H]2CN(C)C)c1 (racemic) [tramadol HCl, (±)-cis-2-[(dimethylamino)methyl]-1-(3-methoxyphenyl) cyclohexanol]
[3]; iv, 4 hours follow-up, N = 16/18/18, tramadol HCl alone 100 mg
  Number of rescued patients: 9
[3]; iv, 4 hours follow-up, tramadol HCl alone 100 mg
  % of rescued patients: 50.0%
[3]; iv, N = 16/18/18, tramadol HCl alone 100 mg
  Number of patients reporting AE: 5
[3]; iv, tramadol HCl alone 100 mg
  % of patients reporting AE: 27.8%
  Average time until rescue: 70 min
  Number of AE: 9
[3]; 15 min after administration, tramadol HCl alone 100 mg
  VAS (average value): 48.55 mm
[3]; 30 min, tramadol HCl alone 100 mg
  VAS (average value): 45.28 mm
[3]; 45 min, tramadol HCl alone 100 mg
  VAS (average value): 47.11 mm
[3]; 60 min, tramadol HCl alone 100 mg
  VAS (average value): 51.67 mm
[3]; 75 min, tramadol HCl alone 100 mg
  VAS (average value): 54.72 mm
[3]; 90 min, tramadol HCl alone 100 mg
  VAS (average value): 54.44 mm
[3]; 105 min, tramadol HCl alone 100 mg
  VAS (average value): 53.67 mm
[3]; 120 min, tramadol HCl alone 100 mg
  VAS (average value): 51.55 mm
[3]; 150 min, tramadol HCl alone 100 mg
  VAS (average value): 49.39 mm
[3]; 180 min, tramadol HCl alone 100 mg
  VAS (average value): 47.94 mm
[3]; 210 min, tramadol HCl alone 100 mg
  VAS (average value): 46.72 mm
[3]; 240 min, tramadol HCl alone 100 mg
  VAS (average value): 44.50 mm
[3]; time 0 min (basal), tramadol HCl alone 100 mg
  VAS (average value): 72.83 mm
[1]
  Total rescued patients (number): 31
  Total rescued patients (%): 31.6%
  Rescued patients at 24 h (%): 28.6%
  Rescued patients at 24 h (number): 28
  Average time until rescue: 8.97 h
  number of adverse effects reported relative to Group 1 (ibuprofen/tramadol): twice
[2]
  Number of rescued patients: 38
  % of rescued patients: 38.8%
